Results published in ChEMBL document CHEMBL4507297, “Data for DCP probe PF-04457845” (2021).

Key:
[1] = molecular target: NUAK family SNF1-like kinase 1 (Homo sapiens) (UniProt O60285); conditions: Compound concentration 1000.0 nM
[2] = molecular target: Tyrosine-protein kinase Lyn (Homo sapiens) (UniProt P07948); conditions: Compound concentration 1000.0 nM
[3] = molecular target: Mitogen-activated protein kinase kinase kinase 15 (Homo sapiens) (UniProt Q6ZN16); conditions: Compound concentration 1000.0 nM
[4] = system: Tyrosine-protein kinase ABL1 (Homo sapiens), P00519 [Q252H]; conditions: Compound concentration 1000.0 nM
[5] = molecular target: Serine/threonine-protein kinase SIK3 (Homo sapiens) (UniProt Q9Y2K2); conditions: Compound concentration 1000.0 nM
[6] = molecular target: Tyrosine-protein kinase Srms (Homo sapiens) (UniProt Q9H3Y6); conditions: Compound concentration 1000.0 nM
[7] = system: Receptor-type tyrosine-protein kinase FLT3 (Homo sapiens), P36888 [K663Q]; conditions: Compound concentration 1000.0 nM
[8] = molecular target: Epidermal growth factor receptor (Homo sapiens) (UniProt P00533); conditions: Compound concentration 1000.0 nM
[9] = molecular target: Mitogen-activated protein kinase kinase kinase 13 (Homo sapiens) (UniProt O43283); conditions: Compound concentration 1000.0 nM
[10] = molecular target: Bone morphogenetic protein receptor type-1A (Homo sapiens) (UniProt P36894); conditions: Compound concentration 1000.0 nM
[11] = molecular target: Serine/threonine-protein kinase N2 (Homo sapiens) (UniProt Q16513); conditions: Compound concentration 1000.0 nM
[12] = molecular target: Serine/threonine-protein kinase haspin (Homo sapiens) (UniProt Q8TF76); conditions: Compound concentration 1000.0 nM
[13] = molecular target: 5-hydroxytryptamine receptor 2A (Homo sapiens, UniProt P28223); conditions: Compound concentration 10.0 uM
[14] = molecular target: Glycogen synthase kinase-3 alpha (Homo sapiens) (UniProt P49840); conditions: Compound concentration 1000.0 nM
[15] = molecular target: Hepatocyte growth factor receptor (Homo sapiens) (UniProt P08581); conditions: Compound concentration 1000.0 nM
[16] = molecular target: cAMP-dependent protein kinase catalytic subunit alpha (Homo sapiens) (UniProt P17612); conditions: Compound concentration 1000.0 nM
[17] = molecular target: Muscle, skeletal receptor tyrosine-protein kinase (Homo sapiens) (UniProt O15146); conditions: Compound concentration 1000.0 nM
[18] = molecular target: Protein kinase C iota type (Homo sapiens) (UniProt P41743); conditions: Compound concentration 1000.0 nM
[19] = molecular target: Ephrin type-A receptor 2 (Homo sapiens) (UniProt P29317); conditions: Compound concentration 1000.0 nM
[20] = molecular target: Phosphatidylinositol 4-kinase beta (Homo sapiens) (UniProt Q9UBF8); conditions: Compound concentration 1000.0 nM
[21] = molecular target: MAP kinase-activated protein kinase 2 (Homo sapiens) (UniProt P49137); conditions: Compound concentration 1000.0 nM
[22] = molecular target: Insulin receptor-related protein (Homo sapiens) (UniProt P14616); conditions: Compound concentration 1000.0 nM
[23] = molecular target: Serine/threonine-protein kinase tousled-like 2 (Homo sapiens) (UniProt Q86UE8); conditions: Compound concentration 1000.0 nM
[24] = molecular target: Activated CDC42 kinase 1 (Homo sapiens) (UniProt Q07912); conditions: Compound concentration 1000.0 nM
[25] = molecular target: G protein-coupled receptor kinase 3 (Homo sapiens) (UniProt P35626); conditions: Compound concentration 1000.0 nM
[26] = system: Tyrosine-protein kinase ABL1 (Homo sapiens), P00519 [F317L]; conditions: Compound concentration 1000.0 nM
[27] = molecular target: NUAK family SNF1-like kinase 2 (Homo sapiens) (UniProt Q9H093); conditions: Compound concentration 1000.0 nM
[28] = molecular target: Membrane-associated tyrosine- and threonine-specific cdc2-inhibitory kinase (Homo sapiens) (UniProt Q99640); conditions: Compound concentration 1000.0 nM
[29] = molecular target: Ephrin type-B receptor 4 (Homo sapiens) (UniProt P54760); conditions: Compound concentration 1000.0 nM
[30] = molecular target: Mitogen-activated protein kinase kinase kinase 12 (Homo sapiens) (UniProt Q12852); conditions: Compound concentration 1000.0 nM
[31] = molecular target: Serine/threonine-protein kinase PRP4 homolog (Homo sapiens) (UniProt Q13523); conditions: Compound concentration 1000.0 nM
[32] = molecular target: Testis-specific serine/threonine-protein kinase 3 (Homo sapiens) (UniProt Q96PN8); conditions: Compound concentration 1000.0 nM
[33] = molecular target: Calcium/calmodulin-dependent protein kinase type II subunit delta (Homo sapiens) (UniProt Q13557); conditions: Compound concentration 1000.0 nM
[34] = molecular target: Dual specificity protein kinase CLK3 (Homo sapiens) (UniProt P49761); conditions: Compound concentration 1000.0 nM
[35] = molecular target: Rhodopsin kinase GRK1 (Homo sapiens) (UniProt Q15835); conditions: Compound concentration 1000.0 nM
[36] = molecular target: Casein kinase I isoform alpha-like (Homo sapiens) (UniProt Q8N752); conditions: Compound concentration 1000.0 nM
[37] = molecular target: Cyclin-dependent kinase 2 homolog (Plasmodium falciparum (isolate 3D7)) (UniProt P61075); conditions: Compound concentration 1000.0 nM
[38] = molecular target: Calcium/calmodulin-dependent protein kinase type 1D (Homo sapiens) (UniProt Q8IU85); conditions: Compound concentration 1000.0 nM
[39] = molecular target: 5-hydroxytryptamine receptor 2B (Homo sapiens, UniProt P41595); conditions: Compound concentration 10.0 uM
[40] = molecular target: Ephrin type-A receptor 5 (Homo sapiens) (UniProt P54756); conditions: Compound concentration 1000.0 nM
[41] = molecular target: RAF proto-oncogene serine/threonine-protein kinase (Homo sapiens) (UniProt P04049); conditions: Compound concentration 1000.0 nM

5-hydroxytryptamine receptor 2A, sequence (P28223 whole entry): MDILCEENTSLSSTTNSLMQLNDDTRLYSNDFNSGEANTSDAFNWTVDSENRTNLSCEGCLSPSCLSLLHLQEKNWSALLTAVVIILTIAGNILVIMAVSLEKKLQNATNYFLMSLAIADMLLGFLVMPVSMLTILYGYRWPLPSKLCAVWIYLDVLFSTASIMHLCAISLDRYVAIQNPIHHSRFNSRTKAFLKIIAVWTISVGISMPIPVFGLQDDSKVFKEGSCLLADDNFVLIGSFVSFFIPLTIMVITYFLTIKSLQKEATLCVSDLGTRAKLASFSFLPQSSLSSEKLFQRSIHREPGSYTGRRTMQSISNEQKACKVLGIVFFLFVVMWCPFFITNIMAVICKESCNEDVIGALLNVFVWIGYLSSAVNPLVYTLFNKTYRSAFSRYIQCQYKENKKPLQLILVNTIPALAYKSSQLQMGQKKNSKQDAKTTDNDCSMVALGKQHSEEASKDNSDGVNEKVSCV
Mitogen-activated protein kinase kinase kinase 15 (Homo sapiens), sequence (Q6ZN16 whole entry): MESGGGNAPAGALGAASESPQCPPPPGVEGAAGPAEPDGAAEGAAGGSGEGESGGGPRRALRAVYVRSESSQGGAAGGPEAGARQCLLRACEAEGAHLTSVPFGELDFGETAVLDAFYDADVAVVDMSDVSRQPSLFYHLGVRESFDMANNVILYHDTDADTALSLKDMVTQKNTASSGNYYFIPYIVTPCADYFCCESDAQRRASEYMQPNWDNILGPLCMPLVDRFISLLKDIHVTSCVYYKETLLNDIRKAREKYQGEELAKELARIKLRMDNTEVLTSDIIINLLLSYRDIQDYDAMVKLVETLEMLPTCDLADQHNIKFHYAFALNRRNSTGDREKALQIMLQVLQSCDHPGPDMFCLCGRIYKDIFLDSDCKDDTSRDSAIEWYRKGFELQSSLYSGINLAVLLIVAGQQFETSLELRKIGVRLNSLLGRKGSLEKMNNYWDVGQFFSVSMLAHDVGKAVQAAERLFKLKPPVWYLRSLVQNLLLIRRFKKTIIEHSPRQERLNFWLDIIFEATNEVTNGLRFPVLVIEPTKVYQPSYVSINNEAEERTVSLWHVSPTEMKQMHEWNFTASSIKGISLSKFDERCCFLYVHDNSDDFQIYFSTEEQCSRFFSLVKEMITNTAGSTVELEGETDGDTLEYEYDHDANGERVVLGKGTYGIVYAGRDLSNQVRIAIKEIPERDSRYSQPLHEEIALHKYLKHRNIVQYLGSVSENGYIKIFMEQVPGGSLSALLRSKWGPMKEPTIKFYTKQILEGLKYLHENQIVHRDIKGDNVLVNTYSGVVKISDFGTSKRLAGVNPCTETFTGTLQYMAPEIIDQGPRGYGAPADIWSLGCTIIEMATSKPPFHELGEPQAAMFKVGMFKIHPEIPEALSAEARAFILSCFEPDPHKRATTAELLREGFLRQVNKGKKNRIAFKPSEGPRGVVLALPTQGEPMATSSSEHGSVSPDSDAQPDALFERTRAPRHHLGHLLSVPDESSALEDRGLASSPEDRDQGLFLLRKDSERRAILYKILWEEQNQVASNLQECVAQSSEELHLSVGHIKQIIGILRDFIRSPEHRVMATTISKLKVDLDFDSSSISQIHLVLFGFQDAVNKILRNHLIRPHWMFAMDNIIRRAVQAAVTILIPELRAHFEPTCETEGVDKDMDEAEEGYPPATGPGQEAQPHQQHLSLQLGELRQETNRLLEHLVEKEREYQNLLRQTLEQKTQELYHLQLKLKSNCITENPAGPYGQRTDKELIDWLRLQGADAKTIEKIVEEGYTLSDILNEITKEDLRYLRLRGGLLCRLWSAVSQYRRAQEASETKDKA
NUAK family SNF1-like kinase 2 (Homo sapiens), sequence (Q9H093 whole entry): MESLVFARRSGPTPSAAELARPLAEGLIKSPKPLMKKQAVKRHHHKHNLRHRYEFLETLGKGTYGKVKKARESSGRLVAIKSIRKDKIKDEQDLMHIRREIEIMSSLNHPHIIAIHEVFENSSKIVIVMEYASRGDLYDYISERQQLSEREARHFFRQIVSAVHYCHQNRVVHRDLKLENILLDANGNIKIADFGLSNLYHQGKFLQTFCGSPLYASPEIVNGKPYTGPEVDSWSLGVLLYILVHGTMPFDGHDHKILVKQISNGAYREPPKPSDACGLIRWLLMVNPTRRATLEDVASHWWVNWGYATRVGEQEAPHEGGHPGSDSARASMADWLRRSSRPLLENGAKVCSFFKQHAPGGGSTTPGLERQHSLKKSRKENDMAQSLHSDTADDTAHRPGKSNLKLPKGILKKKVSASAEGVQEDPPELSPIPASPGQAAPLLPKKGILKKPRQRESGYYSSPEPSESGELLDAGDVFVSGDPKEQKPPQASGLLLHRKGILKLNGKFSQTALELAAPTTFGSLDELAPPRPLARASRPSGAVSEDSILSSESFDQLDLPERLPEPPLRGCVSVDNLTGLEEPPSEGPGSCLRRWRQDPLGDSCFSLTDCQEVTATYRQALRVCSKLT
Casein kinase I isoform alpha-like (Homo sapiens), sequence (Q8N752 whole entry, canonical isoform): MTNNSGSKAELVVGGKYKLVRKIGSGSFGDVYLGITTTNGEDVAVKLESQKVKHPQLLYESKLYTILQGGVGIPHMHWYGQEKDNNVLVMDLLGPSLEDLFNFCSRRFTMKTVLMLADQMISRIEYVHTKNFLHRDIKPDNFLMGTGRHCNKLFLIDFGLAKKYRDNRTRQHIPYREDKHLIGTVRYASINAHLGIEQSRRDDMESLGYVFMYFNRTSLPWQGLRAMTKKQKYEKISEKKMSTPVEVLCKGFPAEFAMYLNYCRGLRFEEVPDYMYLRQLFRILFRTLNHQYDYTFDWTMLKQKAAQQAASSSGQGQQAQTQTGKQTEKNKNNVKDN
G protein-coupled receptor kinase 3 (Homo sapiens), sequence (P35626 whole entry): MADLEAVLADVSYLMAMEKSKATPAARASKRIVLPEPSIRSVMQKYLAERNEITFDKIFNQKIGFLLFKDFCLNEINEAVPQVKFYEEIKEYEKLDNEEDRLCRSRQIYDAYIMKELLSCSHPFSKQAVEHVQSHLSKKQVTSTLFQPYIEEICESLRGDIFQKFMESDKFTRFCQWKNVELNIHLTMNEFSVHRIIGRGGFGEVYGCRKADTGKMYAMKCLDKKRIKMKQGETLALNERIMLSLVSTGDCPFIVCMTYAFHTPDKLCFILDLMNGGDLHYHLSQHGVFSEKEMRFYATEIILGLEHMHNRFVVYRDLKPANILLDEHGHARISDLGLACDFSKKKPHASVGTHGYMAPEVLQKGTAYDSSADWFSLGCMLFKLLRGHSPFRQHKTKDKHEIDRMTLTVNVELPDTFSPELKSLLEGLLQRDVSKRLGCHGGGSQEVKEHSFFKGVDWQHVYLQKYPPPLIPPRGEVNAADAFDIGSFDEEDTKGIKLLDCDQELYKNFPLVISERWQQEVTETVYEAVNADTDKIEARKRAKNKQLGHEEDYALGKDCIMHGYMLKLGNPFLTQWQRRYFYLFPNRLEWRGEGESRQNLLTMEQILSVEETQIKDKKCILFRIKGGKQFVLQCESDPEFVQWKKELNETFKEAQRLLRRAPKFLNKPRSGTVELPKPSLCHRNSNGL
Bone morphogenetic protein receptor type-1A (Homo sapiens), sequence (P36894 whole entry): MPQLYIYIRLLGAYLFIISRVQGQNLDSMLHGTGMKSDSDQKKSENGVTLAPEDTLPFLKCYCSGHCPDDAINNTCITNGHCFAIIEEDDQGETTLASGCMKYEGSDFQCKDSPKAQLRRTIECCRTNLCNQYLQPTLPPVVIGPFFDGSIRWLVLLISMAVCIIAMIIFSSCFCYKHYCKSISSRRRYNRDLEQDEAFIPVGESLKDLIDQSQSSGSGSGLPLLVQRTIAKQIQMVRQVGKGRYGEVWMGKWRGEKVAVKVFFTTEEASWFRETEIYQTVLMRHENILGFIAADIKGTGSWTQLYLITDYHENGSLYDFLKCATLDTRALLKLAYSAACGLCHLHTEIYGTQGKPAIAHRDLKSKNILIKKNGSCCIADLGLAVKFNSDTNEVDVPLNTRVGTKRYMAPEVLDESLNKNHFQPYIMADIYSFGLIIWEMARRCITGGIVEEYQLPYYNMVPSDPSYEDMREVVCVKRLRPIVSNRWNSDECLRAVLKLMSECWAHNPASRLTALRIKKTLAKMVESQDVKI
Activated CDC42 kinase 1 (Homo sapiens), sequence (Q07912 whole entry, looked up): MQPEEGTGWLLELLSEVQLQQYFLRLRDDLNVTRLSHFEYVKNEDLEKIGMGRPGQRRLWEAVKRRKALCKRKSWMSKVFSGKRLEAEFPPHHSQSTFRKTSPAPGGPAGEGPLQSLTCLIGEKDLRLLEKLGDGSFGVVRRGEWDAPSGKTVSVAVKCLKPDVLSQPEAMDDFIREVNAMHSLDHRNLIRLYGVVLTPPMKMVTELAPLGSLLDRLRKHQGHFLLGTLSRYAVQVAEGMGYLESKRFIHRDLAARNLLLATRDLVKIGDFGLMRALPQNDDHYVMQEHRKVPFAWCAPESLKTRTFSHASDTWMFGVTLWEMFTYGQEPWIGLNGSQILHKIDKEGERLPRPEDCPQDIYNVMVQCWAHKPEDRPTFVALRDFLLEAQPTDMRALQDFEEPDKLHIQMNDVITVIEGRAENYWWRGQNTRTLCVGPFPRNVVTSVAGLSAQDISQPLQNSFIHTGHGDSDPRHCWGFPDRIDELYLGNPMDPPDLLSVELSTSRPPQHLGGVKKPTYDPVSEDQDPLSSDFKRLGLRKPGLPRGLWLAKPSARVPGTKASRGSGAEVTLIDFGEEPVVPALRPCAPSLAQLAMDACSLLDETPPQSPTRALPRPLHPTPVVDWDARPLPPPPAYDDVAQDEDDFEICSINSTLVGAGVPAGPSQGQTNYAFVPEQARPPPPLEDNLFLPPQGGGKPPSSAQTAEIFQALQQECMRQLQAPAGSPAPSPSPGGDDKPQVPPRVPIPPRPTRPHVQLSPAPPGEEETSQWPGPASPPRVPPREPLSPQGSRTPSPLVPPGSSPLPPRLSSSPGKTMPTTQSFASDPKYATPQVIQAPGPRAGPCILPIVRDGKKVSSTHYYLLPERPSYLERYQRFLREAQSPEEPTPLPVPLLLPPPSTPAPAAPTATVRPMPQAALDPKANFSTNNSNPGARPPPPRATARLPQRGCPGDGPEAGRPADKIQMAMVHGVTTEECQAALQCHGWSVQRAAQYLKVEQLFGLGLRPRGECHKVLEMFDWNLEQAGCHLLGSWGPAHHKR

O=C(Nc1cccnn1)N1CC(C/C=C/c2cncc(Oc3ccc(C(F)(F)F)cn3)n2)C1 gave a residual activity [1] of 100%, a residual activity [2] of 97% and a residual activity [3] of 81%. For the same compound, the residual activity [4] was 100%, the residual activity [5] was 74% and the residual activity [6] was 67%. The residual activity [7] was 100%, the residual activity [8] was 99% and the residual activity [9] was 0%. It also gave a residual activity [10] of 100%, a residual activity [11] of 100% and a residual activity [12] of 79%. For the same compound, the inhibition [13] was -3.55%, the residual activity [14] was 92% and the residual activity [15] was 95%. For the same compound, the residual activity [16] was 93%, the residual activity [17] was 97% and the residual activity [18] was 96%. For the same compound, the residual activity [19] was 100%, the residual activity [20] was 91% and the residual activity [21] was 100%. For the same compound, the residual activity [22] was 100%, the residual activity [23] was 100% and the residual activity [24] was 100%. For the same compound, the residual activity [25] was 100%, the residual activity [26] was 58% and the residual activity [27] was 73%. For the same compound, the residual activity [28] was 100%, the residual activity [29] was 100% and the residual activity [30] was 83%. It also gave a residual activity [31] of 100%, a residual activity [32] of 98% and a residual activity [33] of 100%. For the same compound, the residual activity [34] was 100%, the residual activity [35] was 82% and the residual activity [36] was 100%. The residual activity [37] was 93%, the residual activity [38] was 100% and the inhibition [39] was 2.28%. It also gave a residual activity [40] of 85% and a residual activity [41] of 100%.
O=C(Nc1cccnn1)N1CCC(=Cc2cccc(Oc3ccc(C(F)(F)F)cn3)c2)CC1 showed a residual activity [1] of 86%, a residual activity [2] of 100% and a residual activity [3] of 100%. The residual activity [4] was 75%, the residual activity [5] was 83% and the residual activity [6] was 95%. The residual activity [7] was 100%, the residual activity [8] was 100% and the residual activity [9] was 100%. For the same compound, the residual activity [10] was 100%, the residual activity [11] was 100% and the residual activity [12] was 100%. It also gave an inhibition [13] of 82.9%, a residual activity [14] of 100% and a residual activity [15] of 100%. For the same compound, the residual activity [16] was 100%, the residual activity [17] was 100% and the residual activity [18] was 81%. It also gave a residual activity [19] of 81%, a residual activity [20] of 100% and a residual activity [21] of 87%. For the same compound, the residual activity [22] was 100%, the residual activity [23] was 100% and the residual activity [24] was 100%. For the same compound, the residual activity [25] was 100%, the residual activity [26] was 100% and the residual activity [27] was 88%. The residual activity [28] was 100%, the residual activity [29] was 69% and the residual activity [30] was 100%. It also gave a residual activity [31] of 100%, a residual activity [32] of 100% and a residual activity [33] of 82%. The residual activity [34] was 100%, the residual activity [35] was 89% and the residual activity [36] was 76%. The residual activity [37] was 100%, the residual activity [38] was 97% and the inhibition [39] was 55.7%. It also gave a residual activity [40] of 98% and a residual activity [41] of 63%.
